SMILES strings stand for the structures.

The test system of one series is HIV-IIIb. The experiment in a line: Test A: Antiviral Assay in MT4 Cells. In kind it is cell-based, HIV-1. As to conditions: Human immunodeficiency virus 1, IIIB, MT4, 120 h, read-out: % inhibition at 3 μM. The procedure: (§1) For the antiviral assay, 40 μL of 1× test concentration of 3-fold serially diluted compound in culture medium with 10% FBS was added to each well of a 384-well plate (10 concentrations) in quadruplicate. MT-4 cells were next mixed with HIV-IIIb at an m.o.i of 0.003 for 1 hour, after which time 35 μL of virus/cell mixture (2000 cells) was immediately added to each well containing 40 μL of diluted compound. The plates were then incubated at 37° C. for 5 days. After 5 days of incubation, 25 μl of 2× concentrated CellTiter-Glo™ Reagent (catalog #G7571, Promega Biosciences, Inc., Madison, Wis.) was added to each well containing MT-4 cells. Cell lysis was carried out by incubating at room temperature for 10 min and then chemiluminescence was read.

A short description of series [1]: Test B: Cytotoxicity Assay. Format: cell-based. The following applies: human, uninfected MT-4 cells, same protocol as Test A, CellTiter-Glo. How it is done:
as §1
Compound cytotoxicity and the corresponding CC50 values was determined using the same protocol as described in the antiviral assay (Test A) except that uninfected cells were used.

Consider `NC(=O)c1cc(-c2cnc(N3CCC(=O)CC3)nc2[C@H](Cc2cc(F)cc(F)c2)NC(=O)Cn2nc(C(F)F)c3c2C(F)(F)CCC3(F)F)ccc1F` [Compound 19C, (S)-5-(4-(1-(2-(3-(difluoromethyl)-4,4,7,7-tetrafluoro-4,5,6,7-tetrahydro-1H-indazol-1-yl)acetamido)-2-(3,5-difluorophenyl)ethyl)-2-(4-oxopiperidin-1-yl)pyrimidin-5-yl)-2-fluorobenzamide], for which, in the series with HIV-IIIb, the inhibition at 3 µM came to 26%. Also, in series [1], the cytotoxic concentration (CC50) at 5 days is over 51.5 µM. For `NC(=O)c1cc(-c2cnc(NCCN3CCOCC3)nc2[C@H](Cc2cc(F)cc(F)c2)NC(=O)Cn2nc(C(F)F)c3c2C(F)(F)CCC3(F)F)ccc1F` [Compound 28, (S)-5-(4-(1-(2-(3-(difluoromethyl)-4,4,7,7-tetrafluoro-4,5,6,7-tetrahydro-1H-indazol-1-yl)acetamido)-2-(3,5-difluorophenyl)ethyl)-2-((2-morpholinoethyl)amino)pyrimidin-5-yl)-2-fluorobenzamide], in that order: 81% and 14.1 µM. Taken in the same sequence, the figures for `NC(=O)c1cc(-c2cnc(NCCN3CCNC3=O)nc2[C@H](Cc2cc(F)cc(F)c2)NC(=O)Cn2nc(C(F)F)c3c2C(F)(F)CCC3(F)F)ccc1F` [Compound 22B, (S)-5-(4-(1-(2-(3-(difluoromethyl)-4,4,7,7-tetrafluoro-4,5,6,7-tetrahydro-1H-indazol-1-yl)acetamido)-2-(3,5-difluorophenyl)ethyl)-2-((2-(2-oxoimidazolidin-1-yl)ethyl)amino)pyrimidin-5-yl)-2-fluorobenzamide] were 93% and 34.1 µM. Taken in the same sequence, the figures for `Nc1ccc(-c2cccc(S(N)(=O)=O)c2)c(C(Cc2cc(F)cc(F)c2)NC(=O)Cc2c[nH]c3ccc(F)cc23)n1` (centres unmarked) [Compound 5, N-(1-(6-amino-3-(3-sulfamoylphenyl)pyridin-2-yl)-2-(3,5-difluorophenyl)ethyl)-2-(5-fluoro-1H-indol-3-yl)acetamide] were 87% and 28.7 µM. As to `CN(C)c1ncc(-c2ccc(F)c(C(N)=O)c2)c([C@H](Cc2cc(F)cc(F)c2)NC(=O)Cn2nc(C(F)F)c3c2C(F)(F)CCC3(F)F)n1` [Compound 18B, (S)-5-(4-(1-(2-(3-(difluoromethyl)-4,4,7,7-tetrafluoro-4,5,6,7-tetrahydro-1H-indazol-1-yl)acetamido)-2-(3,5-difluorophenyl)ethyl)-2-(dimethylamino)pyrimidin-5-yl)-2-fluorobenzamide], in the series with HIV-IIIb, the inhibition at 3 µM stood at 16%. Besides, it took 38.9 µM to reach half-maximal cytotoxicity in series [1] (CC50 at 5 days). Taken in the same sequence, the figures for `COCCOCCNc1ncc(-c2ccc(F)c(C(N)=O)c2)c([C@H](Cc2cc(F)cc(F)c2)NC(=O)Cn2nc(C(F)F)c3c2C(F)(F)CCC3(F)F)n1` [Compound 17B, (S)-5-(4-(1-(2-(3-(difluoromethyl)-4,4,7,7-tetrafluoro-4,5,6,7-tetrahydro-1H-indazol-1-yl)acetamido)-2-(3,5-difluorophenyl)ethyl)-2-((2-(2-methoxyethoxy)ethyl)amino)pyrimidin-5-yl)-2-fluorobenzamide] were 83% and 48.8 µM.

Consider `Nc1ccc(-c2cccc(OCC(F)(F)F)c2)c(C(Cc2cc(F)cc(F)c2)NC(=O)Cc2c[nH]c3ccc(F)cc23)n1` (centres unmarked) [Compound 8, N-(1-(6-amino-3-(3-(2,2,2-trifluoroethoxy)phenyl)pyridin-2-yl)-2-(3,5-difluorophenyl)ethyl)-2-(5-fluoro-1H-indol-3-yl)acetamide], for which, in the series with HIV-IIIb, the inhibition at 3 µM was 50%. In series [1], this compound displayed a CC50 at 5 days of 11.7 µM. For `COCCNc1ncc(-c2ccc(F)c(C(N)=O)c2)c([C@H](Cc2cc(F)cc(F)c2)NC(=O)Cn2nc(C(F)F)c3c2C(F)(F)CCC3(F)F)n1` [Compound 12E, (S)-5-(4-(1-(2-(3-(difluoromethyl)-4,4,7,7-tetrafluoro-4,5,6,7-tetrahydro-1H-indazol-1-yl)acetamido)-2-(3,5-difluorophenyl)ethyl)-2-((2-methoxyethyl)amino)pyrimidin-5-yl)-2-fluorobenzamide], in that order: 86% and 18.2 µM.

With `O=C(Cn1nc(C(F)F)c2c1C(F)(F)CCC2(F)F)N[C@@H](Cc1cc(F)cc(F)c1)c1nc(-n2cncn2)ncc1-c1ccc2c(c1)C(=O)NC2` [Compound 29D, (S)-2-(3-(difluoromethyl)-4,4,7,7-tetrafluoro-4,5,6,7-tetrahydro-1H-indazol-1-yl)-N-(2-(3,5-difluorophenyl)-1-(5-(3-oxoisoindolin-5-yl)-2-(1H-1,2,4-triazol-1-yl)pyrimidin-4-yl)ethyl)acetamide], in the series on HIV-IIIb, the inhibition at 3 µM was 101%. Also, the midpoint of cytotoxicity in series [1], the CC50 at 5 days, lay at 40 µM.

`NC(=O)c1cc(-c2ccc(N)nc2[C@@H](Cc2cc(F)cc(F)c2)NC(=O)Cc2c[nH]c3ccc(F)cc23)ccc1F` [Compound 2, (R)-5-(6-amino-2-(2-(3,5-difluorophenyl)-1-(2-(5-fluoro-1H-indol-3-yl)acetamido)ethyl)pyridin-3-yl)-2-fluorobenzamide]: the inhibition at 3 µM in the series on HIV-IIIb is 0%. In series [1], this compound displayed a CC50 at 5 days of 25.2 µM. Taken in the same sequence, the figures for `NC(=O)c1cc(-c2cnc(NCCn3ccnn3)nc2[C@H](Cc2cc(F)cc(F)c2)NC(=O)Cn2nc(C(F)F)c3c2C(F)(F)CCC3(F)F)ccc1F` [Compound 23F, (S)-5-(2-((2-(1H-1,2,3-triazol-1-yl)ethyl)amino)-4-(1-(2-(3-(difluoromethyl)-4,4,7,7-tetrafluoro-4,5,6,7-tetrahydro-1H-indazol-1-yl)acetamido)-2-(3,5-difluorophenyl)ethyl)pyrimidin-5-yl)-2-fluorobenzamide] were 77% and 32.7 µM. For the compound `COc1cc(-c2ccc(N)nc2C(Cc2cc(F)cc(F)c2)NC(=O)Cc2c[nH]c3ccc(F)cc23)ccn1` (centres unmarked) [Compound 10, N-(1-(6-amino-2′-methoxy-[3,4′-bipyridin]-2-yl)-2-(3,5-difluorophenyl)ethyl)-2-(5-fluoro-1H-indol-3-yl)acetamide], in the series with HIV-IIIb, the inhibition at 3 µM is 38%. The CC50 at 5 days in series [1] turned out to be 23.8 µM. Compound `CC(=O)Oc1ccc(-c2ccc(F)c(C(N)=O)c2)c([C@H](Cc2cc(F)cc(F)c2)NC(=O)Cn2nc(C(F)F)c3c2C(F)(F)CCC3(F)F)n1` [Compound 20B, (S)-5-(3-carbamoyl-4-fluorophenyl)-6-(1-(2-(3-(difluoromethyl)-4,4,7,7-tetrafluoro-4,5,6,7-tetrahydro-1H-indazol-1-yl)acetamido)-2-(3,5-difluorophenyl)ethyl)pyridin-2-yl acetate] displayed a CC50 at 5 days in series [1] of over 53.2 µM.

For `Nc1ccc(-c2cccc(CO)c2)c(C(Cc2cc(F)cc(F)c2)NC(=O)Cc2c[nH]c3ccc(F)cc23)n1` (centres unmarked) [Compound 6, N-(1-(6-amino-3-(3-(hydroxymethyl)phenyl)pyridin-2-yl)-2-(3,5-difluorophenyl)ethyl)-2-(5-fluoro-1H-indol-3-yl)acetamide], the inhibition at 3 µM in the series on HIV-IIIb amounted to 59%. The same compound displayed a CC50 at 5 days in series [1] of 14.4 µM. As to `Nc1ccc(-c2cccc(F)c2)c(C(Cc2cc(F)cc(F)c2)NC(=O)Cc2c[nH]c3ccc(F)cc23)n1` (centres unmarked) [Compound 9, N-(1-(6-amino-3-(3-fluorophenyl)pyridin-2-yl)-2-(3,5-difluorophenyl)ethyl)-2-(5-fluoro-1H-indol-3-yl)acetamide], the inhibition at 3 µM in the series on HIV-IIIb was found to be 41%. This compound also had a CC50 at 5 days in series [1] of 17.5 µM. Taken in the same sequence, the figures for `NC(=O)c1cc(-c2cnc(N3CC4(COC4)C3)nc2[C@H](Cc2cc(F)cc(F)c2)NC(=O)Cn2nc(C(F)F)c3c2C(F)(F)CCC3(F)F)ccc1F` [Compound 15B, (S)-5-(4-(1-(2-(3-(difluoromethyl)-4,4,7,7-tetrafluoro-4,5,6,7-tetrahydro-1H-indazol-1-yl)acetamido)-2-(3,5-difluorophenyl)ethyl)-2-(2-Oxa-6-azaspiro[3.3]heptan-6-yl)pyrimidin-5-yl)-2-fluorobenzamide] were 70% and 36.3 µM. For `NC(=O)c1cc(-c2cnc(NCC3CC3)nc2[C@H](Cc2cc(F)cc(F)c2)NC(=O)Cn2nc(C(F)F)c3c2C(F)(F)CCC3(F)F)ccc1F` [Compound 13B, (S)-5-(2-((cyclopropylmethyl)amino)-4-(1-(2-(3-(difluoromethyl)-4,4,7,7-tetrafluoro-4,5,6,7-tetrahydro-1H-indazol-1-yl)acetamido)-2-(3,5-difluorophenyl)ethyl)pyrimidin-5-yl)-2-fluorobenzamide], the inhibition at 3 µM in the series with HIV-IIIb was 42%. Moreover, in series [1], the CC50 at 5 days is 7.72 µM. For `Nc1ccc(-c2ccc(Cl)cc2)c(C(Cc2cc(F)cc(F)c2)NC(=O)Cc2c[nH]c3ccc(F)cc23)n1` (centres unmarked) [Compound 3, N-(1-(6-amino-3-(4-chlorophenyl)pyridin-2-yl)-2-(3,5-difluorophenyl)ethyl)-2-(5-fluoro-1H-indol-3-yl)acetamide], in the series on HIV-IIIb, the inhibition at 3 µM was found to be 87%. This compound also came in with a CC50 at 5 days in series [1] of 9.34 µM. Consider `NC(=O)c1cc(-c2cnc(NCCO)nc2[C@H](Cc2cc(F)cc(F)c2)NC(=O)Cn2nc(C(F)F)c3c2C(F)(F)CCC3(F)F)ccc1F` [Compound 26, (S)-5-(4-(1-(2-(3-(difluoromethyl)-4,4,7,7-tetrafluoro-4,5,6,7-tetrahydro-1H-indazol-1-yl)acetamido)-2-(3,5-difluorophenyl)ethyl)-2-((2-hydroxyethyl)amino)pyrimidin-5-yl)-2-fluorobenzamide], for which, in the series with HIV-IIIb, the inhibition at 3 µM was 86%. This compound returned a CC50 at 5 days in series [1] of 19.9 µM. Consider `NC(=O)c1cc(-c2cnc(NCCN3CCCC3)nc2[C@H](Cc2cc(F)cc(F)c2)NC(=O)Cn2nc(C(F)F)c3c2C(F)(F)CCC3(F)F)ccc1F` [Compound 27], for which, in series [1], the midpoint of cytotoxicity, the CC50 at 5 days, lay at 3.5 µM.

The inhibition is the drop in the measured response relative to a control, in per cent. For orientation: CC50 means the concentration giving 50% cytotoxicity. Low readings indicate greater toxicity to the cells, high ones lower toxicity to the cells.
